In assay [1] the target is human orexin-2 receptor (hOX2R) (Homo sapiens (Human), UniProt O43614). The experiment in a line: Measurement of orexin antagonistic activity (intracellular Ca2+ fluorescence, FDSS), hOX2R. The format is cell-based. The settings on record: CHO cells forcibly expressing hOX2R; ligand peptide (modified human orexin-A) 3 nM; maximum fluorescence intensity; read-out: IC50 Value OX2. The procedure: (§1) The antagonistic activities of the test compounds on human orexin-1 receptor (hOX1R) and orexin-2 receptor (hOX2R) were measured by modifying from the method described in literature (Toshikatsu Okumura et al., Biochemical and Biophysical Research Communications 280, 976-981, 2001). Chinese hamster ovary (CHO) cells forcibly expressing the hOX1R and hOX2R were seeded into a 96 well Black clear bottom plate (Nunc) at 20,000 cells per well, which were cultured in Ham's F-12 medium containing 0.1 mM MEM non-essential amino acids, 0.5 mg/ml G418, 10% fetal bovine serum (all by Invitrogen) for 16 hours under the conditions of 37° C., 5% CO2. After removing the medium, 100 μL of 0.5 μM Fluo-4AM ester (Dojin) in an assay buffer (25 mM HEPES (Dojin), Hank's balanced salt solution (Invitrogen), 0.1% bovine serum albumin, 2.5 mM probenecid, 200 μg/ml Amaranth (all by Sigma-Aldrich), pH 7.4) was added and the cells were incubated for 60 minutes at 37° C., 5% CO2. After removing the assay buffer containing […] ester, the test compound was dissolved in dimethyl sulfoxide to be 10 mM and diluted with the assay buffer, 150 μL of which was added and incubated for 30 minutes.
(§2) The reaction was measured for the fluorescence intensity of each well every second for 3 minutes using Functional Drug Screening System (FDSS; Hamamatsu Photonics K.K.), and the antagonistic activity was determined using the maximum fluorescence intensity as the indicator of intracellular Ca2+ concentration.

The target of assay [2] is human orexin-1 receptor (hOX1R) (Homo sapiens (Human), UniProt O43613). The experiment in a line: Measurement of orexin antagonistic activity (intracellular Ca2+ fluorescence, FDSS), hOX1R. The format is cell-based. The conditions noted are these: CHO cells forcibly expressing hOX1R; ligand peptide (modified human orexin-A) 300 pM; maximum fluorescence intensity; read-out: IC50 Value OX1. On the procedure: as §1, with “Chinese” for “The antagonistic activities of the test compounds on human orexin-1 receptor (hOX1R) and orexin-2 receptor (hOX2R) were measured by modifying from the method described in literature (Toshikatsu Okumura et al., Biochemical and Biophysical Research Communications 280, 976-981, 2001). Chinese”
as §2

Each structure is given as a SMILES string.

human orexin-2 receptor (hOX2R), sequence (O43614 whole entry): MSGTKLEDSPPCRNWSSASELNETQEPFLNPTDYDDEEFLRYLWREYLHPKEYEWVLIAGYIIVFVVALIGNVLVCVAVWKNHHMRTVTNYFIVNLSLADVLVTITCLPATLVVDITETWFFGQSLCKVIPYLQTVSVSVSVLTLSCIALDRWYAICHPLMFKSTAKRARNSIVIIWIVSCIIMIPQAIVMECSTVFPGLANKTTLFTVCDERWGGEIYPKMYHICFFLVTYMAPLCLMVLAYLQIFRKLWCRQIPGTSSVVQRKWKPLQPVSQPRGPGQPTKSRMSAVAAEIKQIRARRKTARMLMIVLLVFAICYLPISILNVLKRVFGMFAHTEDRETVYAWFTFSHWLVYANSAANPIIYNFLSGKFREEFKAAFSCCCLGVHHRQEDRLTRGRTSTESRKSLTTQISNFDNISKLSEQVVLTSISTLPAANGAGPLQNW
human orexin-1 receptor (hOX1R), sequence (O43613 whole entry): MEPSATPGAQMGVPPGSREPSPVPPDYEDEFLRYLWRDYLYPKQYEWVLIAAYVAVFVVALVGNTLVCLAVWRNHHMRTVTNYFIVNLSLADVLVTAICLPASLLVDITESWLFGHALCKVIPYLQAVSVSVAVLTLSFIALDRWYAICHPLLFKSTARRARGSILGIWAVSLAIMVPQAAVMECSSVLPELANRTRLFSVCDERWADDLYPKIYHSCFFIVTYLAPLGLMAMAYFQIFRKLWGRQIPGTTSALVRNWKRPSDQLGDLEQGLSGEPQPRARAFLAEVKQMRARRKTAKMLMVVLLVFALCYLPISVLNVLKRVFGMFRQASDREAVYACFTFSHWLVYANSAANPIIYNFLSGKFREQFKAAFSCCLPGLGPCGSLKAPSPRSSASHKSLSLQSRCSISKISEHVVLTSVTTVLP

In general, IC50 refers to the concentration at which inhibition is half-maximal. As for `O=C(c1ccccc1-n1nccn1)N1CCOC1Cn1ccc(-c2ccc(F)cc2)n1` (racemic) [Example 18, (±)-(2-[[3-(4-fluorophenyl)-1H-pyrazol-1-yl]methyl]-1,3-oxazolidin-3-yl)[2-(2H-1,2,3-triazol-2-yl)phenyl] methanone], the results for the IC50 in assay [1] and in assay [2] were 192 nM and 26.4 nM, respectively.
For `Cc1ccc(-c2ncccn2)c(C(=O)N2CCCOC2Cn2ccc(-c3ccc(F)cc3)n2)n1` (single isomer, unassigned; (-)) [Example 28, (−)-(2-[[3-(4-fluorophenyl)-1H-pyrazol-1-yl]methyl]-1,3-oxazinan-3-yl)[6-methyl-3-(pyrimidin-2-yl)pyridin-2-yl] methanone] the same measures were 4 nM and 2.4 nM.
Taken in the same sequence, the figures for `Cc1ccc(-n2nccn2)c(C(=O)N2CCCOC2Cn2ccc(-c3ccc(F)cc3)n2)n1` (single isomer, unassigned; (-)) [Example 27, (−)-(2-[[3-(4-fluorophenyl)-1H-pyrazol-1-yl]methyl]-1,3-oxazinan-3-yl)[6-methyl-3-(2H-1,2,3-triazol-2-yl)pyridin-2-yl]methanone] were 3 nM and 0.9 nM.
Turning to `Cc1ccc(-c2ncccn2)c(C(=O)N2CCCOC2Cn2ccc(-c3ccc(F)cc3)n2)c1` (single isomer, unassigned; (-)) [Example 41, (−)-[2-{[3-(4-Fluorophenyl)-1H-pyrazol-1-yl]methyl}-1,3-oxazinan-3-yl][5-methyl-2-(pyrimidin-2-yl)phenyl]methanone], the IC50 in assay [1] and in assay [2] was 1 nM in each case.
With `O=C(c1cc(F)ccc1-n1nccn1)N1CCOC1Cn1ccc(-c2ccc(F)cc2)n1` (racemic) [Example 19, (±)-(2-[[3-(4-fluorophenyl)-1H-pyrazol-1-yl]methyl]-1,3-oxazolidin-3-yl)[5-fluoro-2-(2H-1,2,3-triazol-2-yl)phenyl]methanone], the IC50 is 233 nM in assay [1] and 76.8 nM in assay [2].

The record behind these values is patent US9266870B2 (TAISHO PHARMACEUTICAL CO., LTD., priority 2012, dated 2016).
